Where only a bound is given, the exact number is not on record here.

These results are taken from a melting point compilation (Tetko et al.; mined from patent text by program, amines drawn as free bases though some values may be those of a salt).

Broadly, the melting point is the temperature, or range, at which the solid turns liquid. Regarding `OCC1Cc2cccc(F)c2OC1CO` (centres undefined), the melting point worked out at 111 °C.

The compound `COCCOC(=O)Cc1cc(Oc2ccc(C(F)(F)F)cc2Cl)ccc1[N+](=O)[O-]` gave a melting point of 71.9 to 72.5 °C.

On to `CC1CCCCN1C(=O)C1Cc2ccccc2N1c1ccc(=O)n(C)n1` (centres undefined), for which the melting point is 96 to 98 °C.

As for `CC(c1ccc(C(F)(F)F)cc1)N(O)C(N)=O` (centres undefined), the melting point lay in the range of 133 to 135 °C.

In turn, `Cc1cccc(C)c1N(CC(C)Cl)C(=O)c1ccccc1` (centres undefined) gave a melting point of 106 to 109 °C.

Consider `N#Cc1cn(N(CO)c2c(Cl)cc(Cl)cc2Cl)c(=O)[nH]c1=O`, for which the melting point was > 300 °C.

As to `CC(=Cc1ccc(OCCCN(C)C)cc1)C(=O)O`, the melting point is > 190 °C.

In turn, `CN(CC(=O)O)C(=O)C=Cc1ccccc1` returned a melting point of 177 to 179 °C.

As for `COc1cc2cc3c(ccc4cc(Cl)ccc43)nc2cc1OC`, the melting point lay in the range of 241 to 243 °C.

`C#CCNC(=C[N+](=O)[O-])SC` showed a melting point of 131 to 132 °C.

`CCCOc1nc(N)nc(-c2ccccc2)c1-c1ccc(=O)n(C(C)C)n1` returned a melting point of 128 to 129 °C.

For the compound `CC(C)(C)NCC(O)COc1ccc2oc(-c3ccc(O)c(O)c3)cc(=O)c2c1` (centres undefined), the melting point came out at 193 °C.

Turning to `COC(=O)c1cc2nc(C)oc2cc1C(=O)OC`, the melting point was 121 to 124 °C.

Compound `CN1CCC(C2c3sccc3CCn3ccnc32)CC1` (centres undefined) showed a melting point of 121 °C.

For the compound `O=C(CC1CCOCC1)c1c(O)c2cccnc2n(-c2ccccc2)c1=O`, the melting point was 198 to 203 °C.

Compound `O=C1CCCC2ON(Cc3ccccc3)C3C(CSC23)N1` (centres undefined) registered a melting point of 161 to 162 °C.

In turn, `CC(=O)c1ccc(NS(C)(=O)=O)c(Cl)c1` registered a melting point of 129 to 131 °C.

For `CSc1ncc(C#N)c(NC(C)C)n1`, the melting point is 121 to 122 °C.

The compound `c1ccc2c(Cn3c(-c4ccc5c(c4)OCO5)nc4ccccc43)cccc2c1` gave a melting point of 166 to 168 °C.

As to `CSc1ncc(Cc2ccc(Cl)cc2)c(=O)[nH]1`, the melting point is 193 to 194 °C.

Consider `Cc1ccc(O)c(-c2nc(-c3cc(C)ccc3O)n(-c3ccc(C(=O)O)cc3)n2)c1`, for which the melting point lay within 268 to 269 °C.

For `Cc1nc(N2CCN(CCC3CC3)C2=O)sc1C(=O)NCc1ccccc1`, the melting point was in the range of 137 to 138 °C.

As to `O=C(Nc1cccc2c(=O)cc(C(=O)O)oc12)c1cc(Cl)c2c(c1)CC(CCCc1ccccc1)O2` (centres undefined), the melting point lay within 224 to 225 °C.

The compound `CC(C#CCOc1cccc(Oc2cccnc2)c1)N(O)C(N)=O` (centres undefined) returned a melting point of 131 to 132 °C.

For the compound `Cc1cccc(-c2cccc3c2OC(CN)C3)c1C` (centres undefined), the melting point is > 225 °C.

For `Cc1ccc(C(=O)Nc2nc3ccccc3c(=O)n2C)cc1`, the melting point lay within 189 to 191 °C.

The compound `CS(=O)CCC(=O)Nc1ccc(OCC(O)CO)cc1` (centres undefined) displayed a melting point of 139 to 141 °C.

The compound `Oc1cc2c(nn1)CCCCCCCCCC2` returned a melting point of 188 to 189 °C.

`CSc1ccc(NC(=N)c2ccc(Cl)cc2)cc1` yielded a melting point of 148 to 150 °C.

`O=C(O)C1=Cc2cc(C(=O)c3ccc(Cl)cc3)ccc2OC1C(F)(F)F` (centres undefined) had a melting point of 268 to 269 °C.

Consider `O=S1(=O)N=CN(C2CC2)c2cccc(F)c21`, for which the melting point fell in the range of 156 to 157 °C.

Compound `CCNC(=O)c1ccccc1[Si](C)(C)C` had a melting point of 64 to 66 °C.

On to `CCOC(=O)N1Cc2ccccc2C(Oc2ccc(Cl)cc2)C1` (centres undefined), for which the melting point fell in the range of 78.5 to 79.5 °C.

`CC(C)(C)C(NC(=O)CCc1ccccc1)Nc1c(Nc2cccnc2Cl)c(=O)c1=O` (centres undefined) gave a melting point of 160 to 161 °C.

For the compound `CN1CCC(C2=C(C#N)C(c3ccccc3Cl)c3c[nH]nc3N2)CC1` (centres undefined), the melting point was > 270 °C.

`CCc1cnc(N2CCN(C(=O)c3ccc(Nc4ncnc5ccccc45)cc3)CC2)nc1` yielded a melting point of 248 to 249 °C.

Take `CC(=O)c1cccc(Nc2cc(C)nc(N)n2)c1`: the melting point lay within 194 to 196 °C.

As to `Cc1ccc(NC(=O)c2ccc(N)c([N+](=O)[O-])c2)cc1C`, the melting point lay in the range of 192 to 195 °C.

Turning to `COc1ccc2c(c1)Oc1cccc([N+](=O)[O-])c1N2`, the melting point fell in the range of 197 to 199 °C.

As to `CCOCCc1c(O)n2c3c(=O)n(C)c(=O)n(C)c3nc2n(Cc2ccccc2)c1=O`, the melting point is 156 to 158 °C.

Regarding `CCCCC(O)Cc1c(O)c2cccnc2n(-c2ccccc2)c1=O` (centres undefined), the melting point lay within 184 to 186 °C.

In turn, `NC(=O)n1c(S(=O)Cc2ccccn2)nc2ccccc21` (centres undefined) had a melting point of 164 °C.

For `O=C(O)CCc1cn(Cc2ccc(OCc3csc(-c4ccccn4)n3)cc2)cc1-c1ccccc1`, the melting point lay within 117 to 118 °C.

In the case of `COC(=O)c1cccc(NC(=O)C=C(c2ccc(Cl)cc2)c2ccc(Cl)cc2)c1`, the melting point lay in the range of 155 to 159 °C.

Compound `CS(=O)(=O)c1ccc(CCl)cc1` came in with a melting point of 102 °C.

The compound `Cc1c(C=O)cccc1C(=O)c1ccc(Cl)cc1` showed a melting point of 68 °C.

As to `CS(=O)(=O)O[C@@H]1C[C@@H](C(N)=O)N(C(=O)OCc2ccc([N+](=O)[O-])cc2)C1`, the melting point was in the range of 150 to 151 °C.

`COC(=O)Cc1cc(C(=O)c2ccc(F)cc2)ccc1O` had a melting point of 173 °C.

Consider `Cc1ccc(-n2nc(C(C)(C)C)cc2NC(=O)Nc2ccc(OCC(=O)N3CCOCC3)c3ccccc23)cc1`, for which the melting point was in the range of 240 to 241 °C.

For the compound `CCC(=O)Nc1c(C(=O)c2cccc(Cl)c2)[nH]c2cc(Cl)ccc12`, the melting point was in the range of 129 to 130 °C.

Turning to `CCOc1ccc(-c2ccc3c(c2)C=C(C(=O)OC)CCS3(=O)=O)cc1`, the melting point fell in the range of 173 to 175 °C.

As to `CCC(Oc1cnc(Cl)c(Cl)c1)C(=O)NC(C)(C)C#CCO` (centres undefined), the melting point was in the range of 129 to 131 °C.

`CS(=O)(=O)N(CCc1ccccn1)CC(O)(Cn1cncn1)c1ccc(Cl)cc1Cl` (centres undefined) yielded a melting point of 151 to 153 °C.

In turn, `CC1Cc2cc3c(cc2C(c2ccc([N+](=O)[O-])cc2)=NN1c1ncccn1)OCO3` (centres undefined) came in with a melting point of 261 to 263 °C.

For `NC(=O)c1cn(CCBr)nc1[N+](=O)[O-]`, the melting point was in the range of 135 to 137 °C.

With `OCc1cn(Cc2ccc(OCc3ccccc3)cc2)nc1-c1ccc(F)cc1`, the melting point was in the range of 112 to 113 °C.

On to `CN1C(=O)C(C)(CCN2CCN(c3cccc4ccccc34)CC2)c2cc(F)ccc21` (centres undefined), for which the melting point is 144 to 146 °C.

Compound `CC(C)N1Cc2cc(CO)ccc2N(CCN2CC=C(c3c[nH]c4cc(F)ccc34)CC2)S1(=O)=O` displayed a melting point of 113 to 115 °C.

The compound `OCc1cn2c(n1)CN=C(c1ccccc1Cl)c1cc(Cl)ccc1-2` came in with a melting point of 174 to 175 °C.

As for `CN(C)C=NC(=O)c1c(N2CCN(Cc3ccccc3)CC2)nn2c(-c3cccc(C(F)(F)F)c3)ccnc12`, the melting point was in the range of 140 to 142 °C.

For the compound `COC(=O)c1cc2c(cc(C=O)c3ccccc32)s1`, the melting point is 196 to 198 °C.

With `O=C1CC(c2cccc(OCc3ccccc3)c2)=Nc2ccc(N3CCOCC3)cc21`, the melting point lay within 283 to 285 °C.

Regarding `CCOC(=O)C1=NNC(C)=C(C(=O)OCC)C1c1cccc([N+](=O)[O-])c1` (centres undefined), the melting point was found to be 117 °C.

For `COc1c(N2CCC(=NO)CC2)c(F)cc2c(=O)c(C(=O)O)cn(C3CC3)c12`, the melting point fell in the range of 258 to 261 °C.
